Among the data in paper PMC6934184, “Selective DNA-PKcs inhibition extends the therapeutic index of localized radiotherapy and chemotherapy” (The Journal of Clinical Investigation, 2019) are inhibition values, retold here.

This experiment concerns the target T1, DMPK (Homo sapiens, UniProt Q09013).
T1 construct: purchased Thermo Fisher Scientific (Life Technologies) SelectScreen
Put plainly: SelectScreen LanthaScreen. It counts as binding. The note with it: read-out: % displacement. The procedure, abridged:
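SelectScreen broad panel; activity (Z'LYTE, Adapta) plus binding formats. ATP: Km app for CSF1R Z'LYTE; 10 for CAMK1 Adapta. Readout = % per kinase.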
For orientation: TR-FRET usually uses a lanthanide donor and a delayed reading to cut background.

SMILES strings stand for the structures.

T1 sequence (Q09013 whole entry): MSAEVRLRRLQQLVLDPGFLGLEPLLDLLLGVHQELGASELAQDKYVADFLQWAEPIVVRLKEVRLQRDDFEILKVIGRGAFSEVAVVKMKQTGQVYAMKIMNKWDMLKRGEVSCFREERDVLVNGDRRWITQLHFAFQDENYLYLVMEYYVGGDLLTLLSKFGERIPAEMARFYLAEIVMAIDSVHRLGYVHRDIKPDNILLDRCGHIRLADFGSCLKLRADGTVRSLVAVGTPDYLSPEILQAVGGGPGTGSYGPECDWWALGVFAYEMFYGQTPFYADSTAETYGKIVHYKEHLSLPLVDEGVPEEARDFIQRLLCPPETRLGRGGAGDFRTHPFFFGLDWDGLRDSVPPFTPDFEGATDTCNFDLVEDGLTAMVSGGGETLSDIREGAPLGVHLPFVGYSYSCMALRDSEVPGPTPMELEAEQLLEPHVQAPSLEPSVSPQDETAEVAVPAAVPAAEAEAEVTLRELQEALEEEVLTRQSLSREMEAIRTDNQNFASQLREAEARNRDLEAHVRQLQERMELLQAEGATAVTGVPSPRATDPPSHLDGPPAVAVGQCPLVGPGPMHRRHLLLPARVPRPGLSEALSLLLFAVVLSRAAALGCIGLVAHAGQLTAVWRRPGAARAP

For `CN(C(=O)CN1CCOCC1)c1ccc2sc3c(-c4cccc5c(=O)cc(N6CC7CCC(C6)O7)oc45)cccc3c2c1` [NU5455], the inhibition at 1 µM is -1.5%.
